Measured values: publication PMC6447596 (2019)

Legend:
[1] = tested on: F21D (DNA, G4) GGGTTAGGGTTAGGGTTAGGG; assay: FRET melting; details: 5 mM K+, 95 mM Li+ (5 K buffer); 10 mM Li cacodylate pH 7.2; 0.2 µM F21D; sub-micromolar RHPS4; printed 'at least 15 °C'
[2] = tested on: Oligo A (DNA, G4) GGATGGGGTGGGGAGG; assay: UV-Vis titration; details: 5 mM K+, 95 mM Li+ (5 K buffer); 10 mM Li cacodylate pH 7.2; 20 µM RHPS4 titrated with annealed oligo; two-state direct fit
[3] = tested on: Oligo B (DNA, G4) GGGGGATGCGGGGG; assay: UV-Vis titration; details: 5 mM K+, 95 mM Li+ (5 K buffer); 10 mM Li cacodylate pH 7.2; 20 µM RHPS4 titrated with annealed oligo; two-state direct fit
[4] = tested on: Oligo A (DNA, G4) GGATGGGGTGGGGAGG; assay: CD melting (264 nm); details: 5 mM K+, 95 mM Li+ (5 K buffer); 5 µM oligo; 2 eq RHPS4; 10 mM Li cacodylate pH 7.2
[5] = tested on: Oligo B (DNA, G4) GGGGGATGCGGGGG; assay: CD melting (260 nm alone, 295 nm with RHPS4); details: 5 mM K+, 95 mM Li+ (5 K buffer); 5 µM oligo; 2 eq RHPS4; 10 mM Li cacodylate pH 7.2

ΔTm [1]: 15 °C
Ka [2]: 0.5 ± 0.3 × 10^6 /M
Ka [3]: 0.5 ± 0.3 × 10^6 /M
melting temperature increase [4]: 7.2 °C
melting temperature increase [5]: 14.9 °C
Structure (SMILES): Cc1cc2c3c([n+](C)c4ccc(F)cc4c3c1)-c1cc(F)ccc1N2C
